Here are results for seven compounds from US9642846B2, “Antifungal drugs” (GEORGETOWN UNIVERSITY, priority 2013, dated 2017).

In data set [1] the test system is C. krusei. The data set is described as follows: MIC80 broth microdilution. Particulars: Pichia kudriavzevii, 80% growth inhibition, RPMI-1640. It counts as cell-based, Candida krusei. An excerpt: (§1) Fluconazole, an ergosterol inhibitor, and the beta-1,3-glucan inhibitor micafungin served as controls (See Tables 1 and 2).
(§2) The minimum inhibitory concentrations resulting in 80% growth inhibition (MIC of multiple Candida species (Candida albicans, Candida tropicalis, Candida, guilliermondii, Candida glabrata, Candida lusitaniae, Candida parapsilois, Candida neoformans, Candida krusei, and Candida apicola) as well as Aspergillus fumigatus to a set of formula (II), (III), (IV), and (V) was determined in accordance with the guidelines in CLSI document M27-A2 (Clinical and Laboratory Standards Institute; Wayne, Pa.). The total volume of cells and drug was 100 μL per microtiter well, and each drug was diluted in RPMI to achieve final concentrations of 0.2-100 μg/ml. Uninoculated cultures were used as a reference standard. Stock inoculum suspensions were prepared from 24 hour cultures on YPD (yeast extract/peptone/dextrose) media at 30° C.
(§3) For MIC determinations, an inoculum of 1.0×10^3 cells of Candida and 2.0×10^3 cells of Aspergillus per well were used, and cells in diluted drugs were prepared in RPMI-1640 medium. MICs were determined both visually and spectrophotometrically at 24 hours and 48 h at 550 nm using a micro plate reader. The MIC80 endpoint was measured as the lowest drug concentration resulting in a reduction of growth of 80% or more compared with growth of the control.

Data set [2] deals with C. neoformans JEC-21. The data set is described as follows: MIC80 broth microdilution. Format: cell-based, Candida neoformans. Particulars: Cryptococcus neoformans, JEC21, 80% growth inhibition, RPMI-1640.
Excerpt: as §1, §2, §3

Data set [3] concerns C. neoformans H99. Description: MIC80 broth microdilution. It counts as cell-based, Candida neoformans. Particulars: Cryptococcus neoformans, 80% growth inhibition, RPMI-1640.
Excerpt: as §1, §2, §3
On the technique in general: Dilution methods test growth across graded concentrations, often in twofold steps.

The subject of data set [4] is C. lusitaniae. The data set is described as follows: MIC80 broth microdilution. Particulars: Clavispora lusitaniae, 80% growth inhibition, RPMI-1640. It counts as cell-based, Candida lusitaniae.
Excerpt: as §1, §2, §3

The test system of data set [5] is C. glabrata. Description: MIC80 broth microdilution. Format: cell-based, Candida glabrata. Particulars: Nakaseomyces glabratus, 80% growth inhibition, RPMI-1640.
Excerpt: as §1, §2, §3

The subject of data set [6] is C. tropicalis. Description: MIC80 broth microdilution. Format: cell-based. Particulars: Candida tropicalis, 80% growth inhibition, RPMI-1640.
Excerpt: as §1, §2, §3

Data set [7] has as its system C. albicans (CaMDR). Description: MIC80 broth microdilution. Particulars: Candida albicans, read-out: Activity (MIC80). It counts as cell-based.
Excerpt: as §1, §2, §3

In data set [8] the test system is C. albicans (SC5314). The data set is described as follows: MIC80 broth microdilution. It counts as cell-based. Particulars: Candida albicans, 80% growth inhibition, RPMI-1640, read at 24 and 48 h.
Excerpt: as §1, §2, §3

The test system of data set [9] is C. guilliermondii. The data set is described as follows: MIC80 broth microdilution. It counts as cell-based, Candida guilliermondii. Particulars: Meyerozyma guilliermondii, 80% growth inhibition, RPMI-1640.
Excerpt: as §1, §2, §3

The subject of data set [10] is C. parapsilosis. The data set is described as follows: MIC80 broth microdilution. Format: cell-based, Candida parapsilosis. Particulars: Lodderomyces parapsilosis, 80% growth inhibition, RPMI-1640.
Excerpt: as §1, §2, §3

The test system of data set [11] is C. apicola. The data set is described as follows: MIC80 broth microdilution. Format: cell-based, Candida apicola. Particulars: Starmerella apicola, 80% growth inhibition, RPMI-1640.
Excerpt: as §1, §2, §3

The test system of data set [12] is MDR A. fumigatus. The data set is described as follows: MIC80 broth microdilution. Particulars: Aspergillus fumigatus, 80% growth inhibition, RPMI-1640. It counts as cell-based.
Excerpt: as §1, §2, §3

The test system of data set [13] is A. fumigatus AF293. Description: MIC80 broth microdilution. Particulars: Aspergillus fumigatus, 80% growth inhibition, RPMI-1640. It counts as cell-based.
Excerpt: as §1, §2, §3

Data set [14] concerns A. fumigatus H11-20. Description: MIC80 broth microdilution. It counts as cell-based. Particulars: Aspergillus fumigatus, H1120, 80% growth inhibition, RPMI-1640.
Excerpt: as §1, §2, §3

Data set [15] relates to 293T kidney cell. The data set is described as follows: MTT toxicity assay. Format: cell-based. Particulars: MTT after 24 hours and 48 hours. How it is done: (§4) The MTT assay is a colorimetric assay that measures the reduction of yellow 3-(4,5-dimethythiazol-2-yl)-2,5-diphenyl tetrazolium bromide (MTT) by mitochondrial succinate dehydrogenase. The MIT enters the cells and passes into the mitochondria where it is reduced to an insoluble, dark purple, formazan product. The cells are then solubilized with an organic solvent (e.g., isopropanol) and the released, solubilized formazan reagent is measured spectrophotometrically. Since reduction of MTT can only occur in metabolically active cells, the level of activity is a measure of the viability of the cells.
(§5) Cells of the HepG2 liver cell, NIH/3T3 fibrolast cell, or 293T kidney cell were seeded in a 96 well plate. The plate was incubated overnight at 37° C. in a humidified incubator, 5% CO2. Compounds of formula (II), (III), (IV), (V), and (VI) were added to the plate. Different concentrations of drug were tested in triplicate along with a negative control. The final volume was adjusted to 100 μl per well. The plate was incubated overnight at 37° C. in a humidified incubator, 5% CO2. After 24 hours and 48 hours, MTT reagent (5 mg/ml, 10 μl/100 μl per well of the 96 well plate) was added and incubated at 37° C. for 3 hours. After 3 hours, 100 μl of the DMSO solution was added to each well and the plate was rocked at room temperature for 1 hour. The plate was then read on a plate reader at […]. The results are shown below in tables 1 and 2.
On the technique in general: Formazan colour is commonly taken as a measure of viable cells.

In data set [16] the test system is NIH/3T3 Fibroblast cell. Description: MTT toxicity assay. It counts as cell-based. Particulars: MTT after 24 hours and 48 hours. How it is done: as §4, §5
The test system of data set [17] is HepG2 liver cell. Description: MTT toxicity assay. It counts as cell-based, human. Particulars: MTT after 24 hours and 48 hours. The procedure:
as §4, §5

Data set [18] concerns C. albicans (wild type). Description: E-test of formula (II) and fluconazole. It counts as cell-based, Candida albicans. Particulars: fluconazole E test strips on YPD plate, 48 h at 30° C. How it is done: E test strips (Biomerieux) containing a graded series of fluconazole concentration are placed on a YPD plate that had been previously inoculated to confluency with C. albicans. The strip plate that was inoculated, is incubated for 48 h at 30° C. The zone of inhibition at the lowest concentration of fluconazole is read as the MIC. The results, shown in FIG. 2, indicate synergy between the compound of formula (II) and fluconazole.

Each structure is given as a SMILES string. In brackets after ≈: the same amount, converted by molar mass.

One may read the MIC80 as the lowest concentration that inhibits either 80% of growth or 80% of the strains tested, depending on the study. As to `OC(Cn1cncn1)(Cn1cncn1)c1ccc(F)cc1F` [Fluconazole, reference compound], the MIC80 in [1] came out at 32 mg/L (≈ 104 µM); in data set [2], 2 mg/L (≈ 6.53 µM); in data set [3], 4 mg/L (≈ 13.1 µM); in data set [4] it was 2 mg/L (≈ 6.53 µM); in data set [5] it was 2 mg/L (≈ 6.53 µM); in data set [6] it was 0.5 mg/L (≈ 1.63 µM). The MIC80 came out at 32 mg/L (≈ 104 µM) in [7]; 0.25 mg/L (≈ 0.816 µM) in data set [8]; 2 mg/L (≈ 6.53 µM) in data set [9]; 1 mg/L (≈ 3.27 µM) in data set [10]; 0.25 mg/L (≈ 0.816 µM) in data set [11].
Take `CCC(C)n1ncn(-c2ccc(N3CCN(c4ccc(OCC5COC(Cn6cncn6)(c6ccc(Cl)cc6Cl)O5)cc4)CC3)cc2)c1=O` (stereo not shown) [Itraconazole, reference compound]: the MIC80 in data set [12] is greater than 100 mg/L; in data set [13], 0.5 mg/L (≈ 0.709 µM); in data set [14], 0.5 mg/L (≈ 0.709 µM).
Turning to `COc1cc2cc[n+]3c(C)c4cc5c(cc4cc3c2cc1OC)OCO5` [compound 156624], the MIC80 amounted to 4 mg/L in data set [1]; 1 mg/L in [2]; 8 mg/L in [3]; 1 mg/L in [4]; 1 mg/L in data set [5]; 4 mg/L in data set [6]. The MIC80 was 4 mg/L in [12]; 4 mg/L in data set [13]; 4 mg/L in data set [14]; 0.2 mg/L in data set [7]; 4 mg/L in data set [8]; 4 mg/L in data set [9]. Also, the MIC80 in data set [10] was 8 mg/L; in [11], 4 mg/L. The figures for the “toxicity (MTT)” value in data set [15], in data set [16] and in data set [17] were 80 µg/mL, greater than 100 µg/mL and 80 µg/mL, respectively.
For `Cc1c2cc3c(cc2cc2c4cc5c(cc4cc[n+]12)OCO5)OCO3` [compound 156627], the MIC80 in data set [1] is 0.5 mg/L; in [2], less than 0.2 mg/L; in data set [3], 1 mg/L; in data set [4], less than 0.2 mg/L; in [5] it was less than 0.2 mg/L; in [6], 0.5 mg/L. Besides, the MIC80 in [12] was 0.5 mg/L; in data set [13], 0.5 mg/L; in data set [14] it was 0.5 mg/L; in data set [7] it was 0.05 mg/L; in [8], 0.5 mg/L; in data set [9], 0.5 mg/L. For the same compound, the MIC80 came to 1 mg/L in data set [10] and 0.5 mg/L in data set [11]. Besides, the “toxicity (MTT)” value in data set [15] amounted to 25 µg/mL; in data set [16], 40 µg/mL; in [17] it was 25 µg/mL. Further, in data set [18], the “interaction with fluconazole (E-test)” value is “synergy”.
Turning to `CCc1c2cc3c(cc2cc2c4cc5c(cc4cc[n+]12)OCO5)OCO3` [compound 157108], the MIC80 in data set [1] was 2 mg/L; in [2], 0.2 mg/L; in data set [3], 2 mg/L; in data set [4], 0.2 mg/L; in data set [5], 0.2 mg/L; in [6], 2 mg/L. The MIC80 in [12] worked out at 1 mg/L; in [13], 1 mg/L; in data set [14], 1 mg/L; in data set [7], 0.2 mg/L; in data set [8] it was 1 mg/L; in [9] it was 2 mg/L. Besides, the MIC80 in data set [10] was 2 mg/L; in [11], 1 mg/L. Further, the “toxicity (MTT)” value in [15] was determined as 70 µg/mL; in [16] it was 100 µg/mL; in [17], 64 µg/mL.
With `COc1cc2cc3c4cc5c(cc4cc[n+]3c(C)c2cc1OC)OCO5` [compound 160459], the MIC80 in data set [1] was determined as 4 mg/L; in data set [2], 0.5 mg/L; in data set [3] it was 8 mg/L; in data set [4] it was 1 mg/L; in data set [5], 0.5 mg/L; in data set [6], 4 mg/L. In addition, the MIC80 was determined as 4 mg/L in data set [12]; 4 mg/L in data set [13]; 4 mg/L in data set [14]; 0.1 mg/L in data set [7]; 4 mg/L in data set [8]; 4 mg/L in [9]. For the same compound, the figures for the MIC80 in [10] and in data set [11] were 8 mg/L and 4 mg/L, respectively. For the same compound, the “toxicity (MTT)” value came to 60 µg/mL in [15], 80 µg/mL in [16] and 50 µg/mL in [17].
Turning to `COc1ccc2cc3c4cc5c(cc4cc[n+]3cc2c1OC)OCO5` [compound 403831], the MIC80 in data set [1] came out at 2 mg/L; in [2] it was 0.5 mg/L; in [3] it was 0.5 mg/L; in data set [4], 0.5 mg/L; in data set [5] it was 0.25 mg/L; in data set [6], 1 mg/L. Also, the MIC80 in data set [12] worked out at 1 mg/L; in [13] it was 1 mg/L; in [14], 1 mg/L; in data set [7] it was 0.1 mg/L; in data set [8] it was 1 mg/L; in [9] it was 1 mg/L. The MIC80 amounted to 2 mg/L in data set [10] and 1 mg/L in data set [11]. The “toxicity (MTT)” value was found to be 80 µg/mL in data set [15], 96 µg/mL in [16] and 80 µg/mL in data set [17].
